# From patent US10925856B2, “Methods and compositions involving bucindolol for the treatment of atrial fibrillation” (priority 2018, dated 2021)
# Where two headings read alike, the source gives them in different places.
# Columns and labels:
# [1] = system: patients with HF and/or AF; conditions: cited from earlier work
# [2] = CYP2D6 Extensive/Ultra Metabolizer
# [3] = Drug Titration Period (first 42 days)
# [4] = treatment-emergent AE, total follow-up
compound,measurement,setting,value
"COCCc1ccc(OCC(O)CNC(C)C)cc1 (centres unmarked) [metoprolol, metoprolol succinate, reference compound]","HEADACHE, % of patients",[2],(4.5%)
same,"HEADACHE, number of patients",[2],5
same,"HYPOTENSION, % of patients",[2],(8.1%)
same,"HYPOTENSION, number of patients",[2],9
same,"IMMUNE SYSTEM DISORDERS, % of patients",[2],(0.9%)
same,"IMMUNE SYSTEM DISORDERS, number of patients",[2],1
same,"INFECTIONS AND INFESTATIONS, % of patients",[2],(20.7%)
same,"INFECTIONS AND INFESTATIONS, number of patients",[2],23
same,"INFLUENZA, % of patients",[2],(2.7%)
same,"INFLUENZA, number of patients",[2],3
same,"HEADACHE, % of patients",CYP2D6 Poor Metabolizer,(0.0%)
same,"HEADACHE, number of patients",CYP2D6 Poor Metabolizer,0
same,"INFECTIONS AND INFESTATIONS, % of patients",CYP2D6 Poor Metabolizer,(12.5%)
same,"INFECTIONS AND INFESTATIONS, number of patients",CYP2D6 Poor Metabolizer,1
same,"INFLUENZA, % of patients",CYP2D6 Poor Metabolizer,(0.0%)
same,"INFLUENZA, number of patients",CYP2D6 Poor Metabolizer,0
same,"UPPER RESPIRATORY TRACT INFECTION, % of patients",CYP2D6 Poor Metabolizer,(0.0%)
same,"UPPER RESPIRATORY TRACT INFECTION, number of patients",CYP2D6 Poor Metabolizer,0
same,"AC mortality or CV hosp or treatment disc. due to AE, patients N (%)",[3],6 (5%)
same,"All-cause mortality, patients N (%)",[3],1 (1%)
same,AEs leading to study withdrawal (excluding death),"GENETIC-AF, all randomized patients",1.5%
same,"Adverse event leading to death, patients N (%)",Total Study On-Drug Period,2.3%
same,"Adverse events leading to study withdrawal (excluding death), patients N (%)",Total Study On-Drug Period,2 (1.5%)
same,"Adverse event leading to death, patients N (%)","Total Study On-Drug Period, listed as Metoprolol",3 (2.3%)
same,AE SOC frequency: Cardiac Disorders,"human, in vivo",26.3%
same,AE SOC frequency: Eye Disorders,"human, in vivo",3.0%
same,AE SOC frequency: Gastrointestinal Disorders,"human, in vivo",18.0%
same,AE SOC frequency: Hepatobiliary Disorders,"human, in vivo",2.3%
same,AE SOC frequency: Infections and Infestations,"human, in vivo",21.8%
same,AE SOC frequency: Investigators,"human, in vivo",7.5%
same,AE SOC frequency: Metabolism and Nutrition Disorders,"human, in vivo",12.0%
same,AE SOC frequency: Musculoskeletal and Connective Tissue Disorders,"human, in vivo",15.0%
same,AE SOC frequency: Neoplasms Benign Malignant and Unspecified,"human, in vivo",6.8%
same,AE SOC frequency: Renal and Urinary Disorders,"human, in vivo",9.8%
same,"AE SOC frequency: Respiratory, Thoracic and Mediastinal Disorders","human, in vivo",10.5%
same,AE frequency: arthralgia,"human, in vivo",3.8%
same,AE frequency: cardiac failure,"human, in vivo",3.8%
same,AE frequency: chronic kidney disease,"human, in vivo",0.8%
same,AE frequency: constipation,"human, in vivo",1.5%
same,AE frequency: epistaxis,"human, in vivo",0.0%
same,AE frequency: hematuria,"human, in vivo",0.0%
same,AE frequency: hypomagnesaemia,"human, in vivo",0.0%
same,AE frequency: hypotension,"human, in vivo",7.5%
same,AE frequency: pneumonia,"human, in vivo",0.8%
same,AE frequency: upper respiratory tract infection,"human, in vivo",4.5%
same,AEs leading to permanent study drug discontinuation,"human, in vivo",8.3%
same,AEs: Bradycardia,"human, in vivo",12.0%
same,AEs: Stroke (99% on OACs),"human, in vivo",0.0%
same,"Adverse event possible/probably related to study drug, patients N (%)","human, in vivo",40 (30.1%)
same,"Adverse events leading to permanent study drug discontinuation, patients N (%)","human, in vivo",11 (8.3%)
same,"Adverse events related to neoplasm, patients N (%)","human, in vivo",9 (6.8%)
same,"Any bradycardia event, % of patients","human, in vivo",(12%)
same,"Any bradycardia event, number of patients","human, in vivo",16
same,"Any bradycardia, % of patients","human, in vivo",(12%)
same,"Any bradycardia, number of patients","human, in vivo",16
same,"Any serious adverse event, % of patients","human, in vivo",(20%)
same,"Any serious adverse event, number of patients","human, in vivo",26
same,"Asymptomatic bradycardia event, % of patients","human, in vivo",(8%)
same,"Asymptomatic bradycardia event, number of patients","human, in vivo",10
same,"Asymptomatic bradycardia, % of patients","human, in vivo",(8%)
same,"Asymptomatic bradycardia, number of patients","human, in vivo",10
same,Bradycardia AEs,"human, in vivo",3 (38%)
same,"Bradycardia event leading to study drug discontinuation, % of patients","human, in vivo",(1%)
same,"Bradycardia event leading to study drug discontinuation, number of patients","human, in vivo",1
same,"Bradycardia event leading to study drug dose interruption, % of patients","human, in vivo",(2%)
same,"Bradycardia event leading to study drug dose interruption, number of patients","human, in vivo",2
same,"Bradycardia event leading to study drug dose reduction, % of patients","human, in vivo",(8%)
same,"Bradycardia event leading to study drug dose reduction, number of patients","human, in vivo",11
same,"CAD, % of patients","human, in vivo",(1%)
same,"CAD, number of patients","human, in vivo",1
same,Cardiac AE rate (heart failure or bradycardia events),"human, in vivo",50%
same,"Cardiovascular serious adverse event, % of patients","human, in vivo",(10%)
same,"Cardiovascular serious adverse event, number of patients","human, in vivo",13
same,"Catheterization, % of patients","human, in vivo",(1%)
same,"Catheterization, number of patients","human, in vivo",1
same,"EPISTAXIS, % of patients","human, in vivo",(0.0%)
same,"EPISTAXIS, number of patients","human, in vivo",0
same,"HAEMATURIA, % of patients","human, in vivo",(0.0%)
same,"HAEMATURIA, number of patients","human, in vivo",0
same,"HYPOMAGNESAEMIA, % of patients","human, in vivo",(0.0%)
same,"HYPOMAGNESAEMIA, number of patients","human, in vivo",0
same,"Heart block (Mobitz I/II, 2:1, or 3rd degree), % of patients","human, in vivo",(0%)
same,"Heart block (Mobitz I/II, 2:1, or 3rd degree), number of patients","human, in vivo",0
same,"ICD Implantation, % of patients","human, in vivo",(5%)
same,"ICD Implantation, number of patients","human, in vivo",7
same,"Incidence of Cr > 3.0, % of patients","human, in vivo",(1%)
same,"Incidence of Cr > 3.0, number of patients","human, in vivo",1
same,"Incidence of bilirubin > 2.0, % of patients","human, in vivo",(2%)
same,"Incidence of bilirubin > 2.0, number of patients","human, in vivo",2
same,"Non-CNS Embolism, % of patients","human, in vivo",(0%)
same,"Non-CNS Embolism, number of patients","human, in vivo",0
same,"Pacemaker Implantation, % of patients","human, in vivo",(2%)
same,"Pacemaker Implantation, number of patients","human, in vivo",3
same,SAE SOC frequency: Infections and Infestations,"human, in vivo",3.0%
same,SAE SOC frequency: Renal and Urinary Disorders,"human, in vivo",1.5%
same,"SAE SOC frequency: Respiratory, Thoracic and Mediastinal Disorders","human, in vivo",1.5%
same,SAE frequency: Cardiac Failure,"human, in vivo",2.3%
same,SAE frequency: Cardiac Failure Congestive,"human, in vivo",5.3%
same,SAEs: Any cardiovascular event,"human, in vivo",9.8%
same,"Stroke, % of patients","human, in vivo",(0%)
same,"Stroke, number of patients","human, in vivo",0
same,"Symptomatic bradycardia event, % of patients","human, in vivo",(5%)
same,"Symptomatic bradycardia event, number of patients","human, in vivo",7
same,"Symptomatic bradycardia, % of patients","human, in vivo",(5%)
same,"Symptomatic bradycardia, number of patients","human, in vivo",7
same,"TIA, % of patients","human, in vivo",(1%)
same,"TIA, number of patients","human, in vivo",1
same,"UPPER RESPIRATORY TRACT INFECTION, % of patients","human, in vivo",(4.5%)
same,"UPPER RESPIRATORY TRACT INFECTION, number of patients","human, in vivo",5
same,"All-cause hospitalization, patients N (%)","human, in vivo, 42 days",9 (7%)
same,"Any serious adverse event, patients N (%)","human, in vivo, 42 days",10 (8%)
same,"Asymptomatic bradycardia, patients N (%)","human, in vivo, 42 days",4 (3%)
same,"Cardiovascular hospitalization, patients N (%)","human, in vivo, 42 days",4 (3%)
same,"Heart failure hospitalization, patients N (%)","human, in vivo, 42 days",4 (3%)
same,"Symptomatic bradycardia, patients N (%)","human, in vivo, 42 days",3 (2%)
same,"Treatment-related cardiovascular serious adverse event, patients N (%)","human, in vivo, 42 days",0 (0%)
same,"Treatment-related serious adverse event, patients N (%)","human, in vivo, 42 days",0 (0%)
same,"Ablation, % of patients",in vivo,(14%)
same,"Ablation, number of patients",in vivo,18
same,"Additional ECV After Successful SR, % of patients",in vivo,(23%)
same,"Additional ECV After Successful SR, number of patients",in vivo,30
same,"Anti-Arrhythmic Therapy, % of patients",in vivo,(33%)
same,"Anti-Arrhythmic Therapy, number of patients",in vivo,44
same,"Appropriate Firing of on ICD, % of patients",in vivo,(1%)
same,"Appropriate Firing of on ICD, number of patients",in vivo,1
same,"Rate Control Therapy, % of patients",in vivo,(11%)
same,"Rate Control Therapy, number of patients",in vivo,15
same,"TIA, patients",in vivo,One
same,"HEADACHE, % of patients",[4],(3.8%)
same,"HEADACHE, number of patients",[4],5
same,"INFECTIONS AND INFESTATIONS, % of patients",[4],(21.8%)
same,"INFECTIONS AND INFESTATIONS, number of patients",[4],29
same,"INFLUENZA, % of patients",[4],(2.3%)
same,"INFLUENZA, number of patients",[4],3
same,"UPPER RESPIRATORY TRACT INFECTION, % of patients",[4],(4.5%)
same,"UPPER RESPIRATORY TRACT INFECTION, number of patients",[4],6
same,"INFECTIONS AND INFESTATIONS, % of patients",treatment-emergent serious AE,(3.0%)
same,"INFECTIONS AND INFESTATIONS, number of patients",treatment-emergent serious AE,4
same,Lowering of AF risk,[1]; HFrEF (MERIT-HF),48%
same,Incidence of AF recurrence,"[1]; persistent AF, ECV to SR, end of 6-month follow-up",52%
